Measured values as given in article PMC8144573, “Distinct EH domains of the endocytic TPLATE complex confer lipid and protein binding” (Nature Communications, 2021).
Values belong to the molecule of their own block, whether it stands above or below them.

Tests used:
[1] = tested on: EH1.2; assay: Peptidome profiling by mass spectrometry, EH1.2; format: binding, Arabidopsis thaliana
Protocol: (§1) Arabidopsis (Col-0) was grown vertically on 1/2 MS media for 7 days on a nylon mesh, harvested and flash-frozen in liquid nitrogen. Frozen seedlings (3 g/experiment) were ground using mortar and pestle. Proteins were extracted and denatured in 50 mM NaHCO3, 8 M Urea and sonicated three times for 1 min. Protein extracts were rotated for 30 min at room temperature after which the extract was subsequently centrifuged twice at 20,000 × g for 20 min. DTT was added to the supernatant, was added to a final concentration of 5 mM and incubated at 55 °C for 30 min. Proteins were alkylated by the addition of 100 mM iodoacetamide and incubated for 15 min in the dark after which the mix was subsequently diluted with 50 mM NaHCO3 to a final concentration of 2 M urea. Trypsin was added in a ratio of 1:75, protein:trypsin (Sequencing Grade Modified Trypsin, V5117, Promega) and incubated overnight at 37 °C on a rotating wheel.
(§2) Trypsin was removed using Sep-Pak Vac 3cc columns (500 mg, WAT036815, Waters). The extract was acidified using 1% TFA for 15 min on ice and cleared by centrifugation at 1780 × g for 15 min at room temperature. The cleared extract was split into four and applied on an equilibrated Sep-Pak columns (Waters, WAT036815, Lot # 010437235B). The column was pre-wet using 5 ml of 100% MeCN followed by sequential washing with 1 ml, 3 ml, and 6 ml of 0.1% TFA. After application of the extract, the column was washed sequentially with 1 ml, 5 ml, and 6 ml of 0.1% TFA followed by a 2 ml wash with 0.1% TFA, 5% acetonitrile. The peptides were eluted using three times 2 ml 0.1% TFA, 40% acetonitrile. The eluate was lyophilized for two days to remove TFA. 200 µg EH domain or his-GFP were coupled, in triplicate, during one hour to 25 µl Ni Sepharose 6 Fast Flow beads (GE Healthcare, 17-5318-01). Unbound protein was removed by three washing steps of 1 ml each. The lyophilized peptides were solubilized in 20 mM HEPES, 150 mM NaCl buffer, 0.2 mM CaCl2, divided and added to the coupled beads. The peptidome was incubated with the proteins for 4 h after which the beads were washed three times with 1 ml of the binding buffer. Peptides were eluted by the addition of 80 µl 20 mM HEPES pH 8, 8 M Urea. The supernatant was removed from the beads and desalted with Monospin C18 columns (Agilent Technologies, A57003100) after which they were freeze dried.
(§3) Peptides were redissolved in 20 µl loading solvent A (0.1% TFA in water/acetonitrile (98:2, v/v)) of which 5 µl was injected for LC-MS/MS analysis on an Ultimate 3000 RSLC nano LC (Thermo Fisher Scientific, Bremen, Germany) in-line connected to a Q Exactive mass spectrometer (Thermo Fisher Scientific). The peptides were first loaded on a trapping column made in-house (100 μm internal diameter (I.D.) × 20 mm, 5 μm beads C18 Reprosil-HD, Dr. Maisch, Ammerbuch-Entringen, Germany) and after flushing from the trapping column the peptides were separated on a 50 cm µPAC™ column with C18-endcapped functionality (Pharmafluidics, Belgium) kept at a constant temperature of 35 °C. Peptides were eluted by a linear gradient from 98% solvent A′ (0.1% formic acid in water) to 55% solvent B′ (0.1% formic acid in water/acetonitrile, 20/80 (v/v)) in 30 min at a flow rate of 300 nl/min, followed by a 5 min wash reaching 99% solvent B’. The mass spectrometer was operated in data-dependent, positive ionization mode, automatically switching between MS and MS/MS acquisition for the 5 most abundant peaks in a given MS spectrum. The source voltage was 2.2 kV, and the capillary temperature was 250 °C. […]

[2] = tested on: EH1.2+EH1.1; assay: Peptidome profiling by mass spectrometry, EH1.2+EH1.1 vs GFP; format: binding, Arabidopsis thaliana
Excerpt: Supplement 41467_2021_23314_MOESM6_ESM.xlsx, sheet "Supplementary Data 3" | column: EH1.2+EH1.1 vs GFP

[3] = tested on: EH1.1; assay: Peptidome profiling by mass spectrometry, EH1.1; format: binding, Arabidopsis thaliana; set-up: scale not given here
Protocol: as §1, §2, §3

[4] = tested on: SCAMP5; assay: ES9 treatment, SCAMP5 localization; format: cell-based, Arabidopsis; conditions: 10 µM ES9, 5 min pretreatment then 30 min co-treatment with 2 µM FM4-64
Protocol: For ES9 treatment plants were pretreated for 5 min with 10 µM ES9, a generous gift of the lab of Jenny Russinova (PSB, VIB/Ugent, BE), in 1/2 MS media followed by 30 min co-treatment of ES9 with 2 µM FM4-64.

[5] = target: 15N-labeled EH1.1 of AtEH1/Pan1 (amino acids 1-107) for NMR titration (Arabidopsis thaliana); assay: NMR titration; 1H,15N HSQC of 15N-labeled EH domain with successive addition of unlabeled peptide up to 1:4 excess; 20 mM MES 6.5, 150 mM NaCl, 2 mM CaCl2; chemical shift perturbations fitted to a binding isotherm; apparent
[6] = target: 15N-labeled EH1.2 of AtEH1/Pan1 (amino acids 346-449) for NMR titration (Arabidopsis thaliana); assay: as above
[7] = target: First EH domain of AtEH1/Pan1 (EH1.1), amino acids 1-107, His-tagged (Arabidopsis thaliana); assay: BLI; Octet RED96; His-tagged EH domain on Ni-NTA biosensors, covalently coupled with EDC/NHS; peptide as analyte in increasing concentrations; 20 mM HEPES pH 7.4, 150 mM NaCl, 2 mM CaCl2; 25 °C; steady state, one-site total binding model
Sequence of First EH domain of AtEH1/Pan1 (EH1.1), amino acids 1-107, His-tagged (Arabidopsis thaliana) (main, as listed by the source): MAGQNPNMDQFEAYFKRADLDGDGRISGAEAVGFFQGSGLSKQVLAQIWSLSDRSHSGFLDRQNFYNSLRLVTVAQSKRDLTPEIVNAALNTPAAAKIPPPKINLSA

Sequence of 15N-labeled EH1.2 of AtEH1/Pan1 (amino acids 346-449) for NMR titration (Arabidopsis thaliana) (main, as listed by the source): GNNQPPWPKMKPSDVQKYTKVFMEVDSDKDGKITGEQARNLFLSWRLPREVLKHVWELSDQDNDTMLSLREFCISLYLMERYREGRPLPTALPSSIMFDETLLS

Molecule: DLTPEIVNAALNTPAAAK
- Difference ([1]; EH1.2 vs EH1.1+GFP): -3.31
- Difference ([1]; EH1.2 vs GFP): 3.059
- Difference [2]: 7.898
- Difference ([3]; EH1.1 vs EH1.2): 9.679
- Difference ([3]; EH1.1 vs EH1.2+GFP): 11.2082
- Difference ([3]; EH1.1 vs GFP): 12.7377

Molecule: YHASAIHVPGPEVAR
- Difference ([1]; EH1.2 vs EH1.1+GFP): 3.084
- Difference ([1]; EH1.2 vs GFP): 7.163
- Difference [2]: 7.661
- Difference ([3]; EH1.1 vs EH1.2): 0.9954
- Difference ([3]; EH1.1 vs EH1.2+GFP): 4.577
- Difference ([3]; EH1.1 vs GFP): 8.159

Molecule: VFMEVDSDKDGKITGEQAR
- Difference ([1]; EH1.2 vs EH1.1+GFP): 15.5083
- Difference ([1]; EH1.2 vs GFP): 15.257
- Difference [2]: 7.377
- Difference ([3]; EH1.1 vs EH1.2): -15.7597
- Difference ([3]; EH1.1 vs EH1.2+GFP): -8.131
- Difference ([3]; EH1.1 vs GFP): -0.5027

Molecule: O=[N+]([O-])c1ccc(NS(=O)(=O)c2ccc(Br)s2)cc1 [ES-9]
- effect on SCAMP5 localization (in words) [4]: caused SCAMP5 accumulation at the PM

- Kd [5]: 33 µM
- Kd [6]: 190 µM
- Kd [7]: 59 µM
Molecule: DPNPFDEDEEIVNPFSK (modifications not checked)
